PubChem BioAssay AID2060330 (Molecular Pharmacology Branch, DTP, NCI, 2025)

Test system: LG0703-F948-PDC spheroids with HUVEC/MSC, viability
Test: Anticancer human tumor LG0703-F948-PDC patient-derived lung adenocarcinoma cell line growth inhibition [IpAb]
Conditions: for IC50: curve of first compound; for viability, T/C: stronger effect = lower value
From the text: Combinatorial screen of targeted agents with ipatasertib and abemaciclib in multi-cell type tumor spheroids
A high-throughput screen of multi-cell type tumor spheroids was designed to identify active combinations of targeted small molecules and ipatasertib or abemaciclib. Complex spheroids include a stromal component modeled by human endothelial cells (HUVEC) and fibroblasts modeled by human mesenchymal stem cells (MSCs). The concentration ranges selected for each drug and investigational agent were based upon clinically achievable concentrations if the clinical Cmax of the agent was known.
Compounds. The drugs and investigational agents: ipatasertib (NSC767898), abemaciclib(NSC768073), selumetinib (NSC741078), trametinib (758246), adavosertib (NSC754352), everolimus (NSC733504), sapanisertib (NSC764658), vemurafenib (NSC761431), venetoclax (NSC766270), copanlisib (NSC809693), apelisib (NSC765974), palbociblib (NSC758247), vemurafenib (NSC761431), dabrafenib (NSC764134), ravoxertinib (NSC781343), BMS-387032 (NSC767048), sotorasib (NSC818433), talazoparib (NSC767125) and afursertib (NSC778305), were obtained from the National Cancer Institute (NCI) Developmental Therapeutics Program Chemical Repository. The FDA-approved anticancer drug set is available from the NCI Developmental Therapeutics Program. […] The stock solutions were prepared in dimethyl sulfoxide (DMSO, Sigma-Aldrich, St. Louis, MO, cat. D2650) at 800-fold the tested concentration and stored at -70 degrees C prior to their use. All drugs and investigational agents were tested over a range starting from a high concentration at or near the clinical Cmax and decreasing in half-log increments. If the clinical Cmax for an agent had not been determined, the highest concentration tested was 10 microM.
NCI60 Cell Culture. NCI60 cell lines were obtained from the NCI Developmental Therapeutics Program Tumor Repository. For each lot of cells, the Repository performed Applied Biosystems AmpFLSTR Identifiler testing with PCR amplification to confirm consistency with the published Identifier STR profile for each cell line. Cells were kept in continuous culture for no more than 20 passages. The optimal seeding densities for each of the cell lines at each time point assessed were determined prior to performing the concentration response studies. Briefly, the NCI60 human tumor lines were grown as monolayers in RPMI 1640 medium supplemented with 10% FBS and 2 mmol/L L-glutamine.
An additional 9 lines were from the NCI60 cell line panel including MDA-MB-231 breast carcinoma, MDA-MB-468 breast carcinoma, MCF7 breast carcinoma, Hs578T breast carcinoma, MALME-3M melanoma, SK-MEL-2 melanoma, SK-OV-3 ovarian carcinoma, DU-145 prostate carcinoma, PC-3 prostate carcinoma, all cell lines along with major genetic alterations are listed on Table 2. Pooled donor human umbilical vein endothelial cells (HUVEC, Lonza, cat. CC-2519) and human mesenchymal stem cells (hMSC, Lonza, cat. PT-2501) were purchased from Lonza (Walkersville, MD).
PDMR cell lines were grown in complete medium (DC medium): Dulbecco's modified Eagle's medium (DMEM)/F12 supplemented with 5% fetal bovine serum (FBS), 2 mM L-glutamine, 100 U/mL penicillin and 100 µg/ml streptomycin, 0.4 µg/ml hydrocortisone, 10 ng/ml epidermal growth factor (EGF) recombinant human protein, 24 µg/mL adenine, and 0.1 mg/mL primocin. During culture from frozen stock vials, PDMR cells were cultured in the same medium containing 10 µM Y-27632 (see Table 3). The PDCs were cultured in complete DMEM/F12 media without 10 microM Y-27632 dihydrochloride for at least two passages prior to the screen. The pooled donor HUVEC and hMSC were cultured in endothelial cell growth medium 2 (PromoCell, Heidelberg, Germany, cat. C-22011) and mesenchymal stem cell growth medium 2 (PromoCell, cat. C-28009), respectively. For all experiments, HUVEC and hMSC were used at passages </=5.
[…]

[1] = second compound 0.1 µM, first compound 0.0316 µM
[2] = second compound 0.1 µM, first compound 0.1 µM
[3] = second compound 0.1 µM, first compound 0.316 µM
[4] = second compound 0.1 µM, first compound 1 µM
[5] = second compound 0.1 µM, first compound 3.16 µM
[6] = second compound 0.1 µM, first compound 10 µM
[7] = second compound 0.316 µM, first compound 0.0316 µM
[8] = second compound 0.316 µM, first compound 0.1 µM
[9] = second compound 0.316 µM, first compound 0.316 µM
[10] = second compound 0.316 µM, first compound 1 µM
[11] = second compound 0.316 µM, first compound 3.16 µM
[12] = second compound 0.316 µM, first compound 10 µM
[13] = second compound 1 µM, first compound 0.0316 µM
[14] = second compound 1 µM, first compound 0.1 µM
[15] = second compound 1 µM, first compound 0.316 µM
[16] = second compound 1 µM, first compound 1 µM
[17] = second compound 1 µM, first compound 3.16 µM
[18] = second compound 1 µM, first compound 10 µM
[19] = second compound 3.16 µM, first compound 0.0316 µM
[20] = second compound 3.16 µM, first compound 0.1 µM
[21] = second compound 3.16 µM, first compound 0.316 µM
[22] = second compound 3.16 µM, first compound 1 µM
[23] = second compound 3.16 µM, first compound 3.16 µM
[24] = second compound 3.16 µM, first compound 10 µM
[25] = second compound 10 µM, first compound 0.0316 µM
[26] = second compound 10 µM, first compound 0.1 µM
[27] = second compound 10 µM, first compound 0.316 µM
[28] = second compound 10 µM, first compound 1 µM
[29] = second compound 10 µM, first compound 3.16 µM
[30] = second compound 10 µM, first compound 10 µM
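Also: spheroids exposed to compounds for seven days before readout.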
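For viability, T/C in this document: T/C percent relative to DMSO vehicle wells set as 100% viability.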

SMILES | IC50 (second compound 0.1 µM) [nM] | IC50 (second compound 0.316 µM) [nM] | IC50 (second compound 1 µM) [nM] | IC50 (second compound 3.16 µM) [nM] | IC50 (second compound 10 µM) [nM] | viability, T/C [1] [%] | viability, T/C [2] [%] | viability, T/C [3] [%] | viability, T/C [4] [%] | viability, T/C [5] [%] | viability, T/C [6] [%] | viability, T/C [7] [%] | viability, T/C [8] [%] | viability, T/C [9] [%] | viability, T/C [13] [%] | viability, T/C [14] [%] | viability, T/C [19] [%] | viability, T/C [20] [%] | viability, T/C [25] [%] | viability, T/C [26] [%] | also measured
C=CCn1c(=O)c2cnc(Nc3ccc(N4CCN(C)CC4)cc3)nc2n1-c1cccc(C(C)(C)O)n1 + CC(C)NCC(C(=O)N1CCN(c2ncnc3c2C(C)CC3O)CC1)c1ccc(Cl)cc1 | 704 | 243 | < 31.6 | < 31.6 | < 31.6 | 97.8 | 94.6 | 72.4 | 40.5 | 13.2 | 4.37 | 75.6 | 66.5 | 45.6 | 44.7 | 36.7 | 39.3 | 39.6 | 28.6 | 24.1 | viability, T/C [10]: 17.1%; viability, T/C [11]: 5.97%; viability, T/C [12]: 2.34%; viability, T/C [15]: 37.1%; viability, T/C [16]: 16.5%; viability, T/C [17]: 7.72%; viability, T/C [18]: 2.58%; viability, T/C [21]: 28.3%; viability, T/C [22]: 13.2%; viability, T/C [23]: 6.52%; viability, T/C [24]: 3.11%; viability, T/C [27]: 15.9%; viability, T/C [28]: 5.77%; viability, T/C [29]: 5.31%; viability, T/C [30]: 6.51%
CC(C)n1nc(-c2ccc3oc(N)nc3c2)c2c(N)ncnc21 + CC(C)NCC(C(=O)N1CCN(c2ncnc3c2C(C)CC3O)CC1)c1ccc(Cl)cc1 | 2.49 | 0.914 | < 0.316 | < 0.316 | < 0.316 | 18.9 | 18.9 |  |  |  |  | 16.4 | 12.6 |  | 11.2 | 9.31 | 7.95 | 7.22 | 5.1 | 29.5 | viability, T/C (second compound 0.1 µM, first compound 0.000316 µM): 77.5%; viability, T/C (second compound 0.1 µM, first compound 0.001 µM): 64.8%; viability, T/C (second compound 0.1 µM, first compound 0.00316 µM): 47.5%; viability, T/C (second compound 0.1 µM, first compound 0.01 µM): 25.9%; viability, T/C (second compound 0.316 µM, first compound 0.000316 µM): 65%; viability, T/C (second compound 0.316 µM, first compound 0.001 µM): 49%; viability, T/C (second compound 0.316 µM, first compound 0.00316 µM): 32%; viability, T/C (second compound 0.316 µM, first compound 0.01 µM): 21.4%; viability, T/C (second compound 1 µM, first compound 0.000316 µM): 49.1%; viability, T/C (second compound 1 µM, first compound 0.001 µM): 37%; viability, T/C (second compound 1 µM, first compound 0.00316 µM): 22.8%; viability, T/C (second compound 1 µM, first compound 0.01 µM): 14%; viability, T/C (second compound 3.16 µM, first compound 0.000316 µM): 39.7%; viability, T/C (second compound 3.16 µM, first compound 0.001 µM): 24.9%; viability, T/C (second compound 3.16 µM, first compound 0.00316 µM): 15.1%; viability, T/C (second compound 3.16 µM, first compound 0.01 µM): 8.55%; viability, T/C (second compound 10 µM, first compound 0.000316 µM): 31.7%; viability, T/C (second compound 10 µM, first compound 0.001 µM): 18.1%; viability, T/C (second compound 10 µM, first compound 0.00316 µM): 10.4%; viability, T/C (second compound 10 µM, first compound 0.01 µM): 16.2%
CC1(C)CCC(CN2CCN(c3ccc(C(=O)NS(=O)(=O)c4ccc(NCC5CCOCC5)c([N+](=O)[O-])c4)c(Oc4cnc5[nH]ccc5c4)c3)CC2)=C(c2ccc(Cl)cc2)C1 + CC(C)NCC(C(=O)N1CCN(c2ncnc3c2C(C)CC3O)CC1)c1ccc(Cl)cc1 | 4060 | 3190 | < 31.6 | < 31.6 | < 31.6 | 90.8 | 82.1 | 77.8 | 72.8 | 64.2 | 10.8 | 71.2 | 60 | 67.4 | 49.2 | 43 | 42.1 | 44.4 | 41 | 43.3 | viability, T/C [10]: 63%; viability, T/C [11]: 50.4%; viability, T/C [12]: 8.61%; viability, T/C [15]: 53%; viability, T/C [16]: 46.5%; viability, T/C [17]: 44.3%; viability, T/C [18]: 7.68%; viability, T/C [21]: 40.9%; viability, T/C [22]: 39.8%; viability, T/C [23]: 30.6%; viability, T/C [24]: 5.93%; viability, T/C [27]: 35.3%; viability, T/C [28]: 37.9%; viability, T/C [29]: 29.2%; viability, T/C [30]: 3.65%
CCCS(=O)(=O)Nc1ccc(F)c(C(=O)c2c[nH]c3ncc(-c4ccc(Cl)cc4)cc23)c1F + CC(C)NCC(C(=O)N1CCN(c2ncnc3c2C(C)CC3O)CC1)c1ccc(Cl)cc1 | > 10000 | > 10000 | 3780 | < 31.6 | < 31.6 | 85.5 | 89.6 | 85 | 91.2 | 86.2 | 67.5 | 69.2 | 71.7 | 68.4 | 54.1 | 49.6 | 41.1 | 42.8 | 35.6 | 39.7 | viability, T/C [10]: 78.2%; viability, T/C [11]: 75%; viability, T/C [12]: 55.6%; viability, T/C [15]: 50%; viability, T/C [16]: 52.1%; viability, T/C [17]: 56.9%; viability, T/C [18]: 36.5%; viability, T/C [21]: 45%; viability, T/C [22]: 46.3%; viability, T/C [23]: 49.6%; viability, T/C [24]: 25.6%; viability, T/C [27]: 38.3%; viability, T/C [28]: 45.1%; viability, T/C [29]: 44%; viability, T/C [30]: 7.66%
